# Experiments:
# Experiment in all cases: Kinase inhibitory activity profiling of RI-962@10 µM (406 kinases, Eurofins)
# Format in all cases: biochemical
# [1] = target: panel of human kinases (kinase named in endpoint) (Homo sapiens, UniProt O00311); settings: 10 µM; read-out: Activity (%), Cdc7/cyclinB1(h)
# Summary of the method: (§1)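 Radiometric filter-binding kinase assays: enzyme preincubated 15 min with compound in 8 mM MOPS pH 7.0, 0.2 mM EDTA, 250 μM peptide substrate, 10 mM magnesium acetate, 10 μM [γ-33P]-ATP. Reaction started with Mg/ATP, run 40 min at room temperature, stopped with phosphoric acid; 33P incorporation read by scintillation counting. Other kinases by similar protocols.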
# [2] = target: panel of human kinases (kinase named in endpoint) (Homo sapiens, UniProt O00329); settings: 10 µM; read-out: Activity (%), PI3 Kinase (p110d/p85a)(h)
# Summary of the method: as §1
# [3] = target: panel of human kinases (kinase named in endpoint) (Homo sapiens, UniProt O94768); settings: 10 µM; read-out: Activity (%), DRAK2(h)
# Summary of the method: as §1
# [4] = target: panel of human kinases (kinase named in endpoint) (Homo sapiens, UniProt P00519); settings: 10 µM; read-out: Activity (%), Abl(h)
# Summary of the method: as §1
# [5] = target: panel of human kinases (kinase named in endpoint) (Homo sapiens, UniProt P00533, L858R/T790M); settings: 10 µM; read-out: Activity (%), EGFR(T790M,L858R)(h)
# Summary of the method: as §1
# [6] = target: panel of human kinases (kinase named in endpoint) (Homo sapiens, UniProt P06493); settings: 10 µM; read-out: Activity (%), CDK1/cyclinB(h)
# Chain of panel of human kinases (kinase named in endpoint) (Homo sapiens, UniProt P06493) (P06493 whole entry): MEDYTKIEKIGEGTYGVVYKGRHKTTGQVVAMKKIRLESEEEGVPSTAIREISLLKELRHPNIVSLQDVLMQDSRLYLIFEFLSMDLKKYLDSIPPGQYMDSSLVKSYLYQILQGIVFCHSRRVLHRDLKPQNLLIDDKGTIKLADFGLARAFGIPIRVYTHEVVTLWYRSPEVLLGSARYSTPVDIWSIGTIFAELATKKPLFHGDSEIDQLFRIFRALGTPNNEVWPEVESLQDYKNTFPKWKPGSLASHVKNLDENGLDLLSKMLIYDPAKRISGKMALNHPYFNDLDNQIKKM
# Summary of the method: as §1
# [7] = target: panel of human kinases (kinase named in endpoint) (Homo sapiens, UniProt P10398); settings: 10 µM; read-out: Activity (%), A-Raf(h)
# Summary of the method: as §1
# [8] = target: panel of human kinases (kinase named in endpoint) (Homo sapiens, UniProt P11362); settings: 10 µM; read-out: Activity (%), FGFR1(h)
# Chain of panel of human kinases (kinase named in endpoint) (Homo sapiens, UniProt P11362) (P11362 22-822): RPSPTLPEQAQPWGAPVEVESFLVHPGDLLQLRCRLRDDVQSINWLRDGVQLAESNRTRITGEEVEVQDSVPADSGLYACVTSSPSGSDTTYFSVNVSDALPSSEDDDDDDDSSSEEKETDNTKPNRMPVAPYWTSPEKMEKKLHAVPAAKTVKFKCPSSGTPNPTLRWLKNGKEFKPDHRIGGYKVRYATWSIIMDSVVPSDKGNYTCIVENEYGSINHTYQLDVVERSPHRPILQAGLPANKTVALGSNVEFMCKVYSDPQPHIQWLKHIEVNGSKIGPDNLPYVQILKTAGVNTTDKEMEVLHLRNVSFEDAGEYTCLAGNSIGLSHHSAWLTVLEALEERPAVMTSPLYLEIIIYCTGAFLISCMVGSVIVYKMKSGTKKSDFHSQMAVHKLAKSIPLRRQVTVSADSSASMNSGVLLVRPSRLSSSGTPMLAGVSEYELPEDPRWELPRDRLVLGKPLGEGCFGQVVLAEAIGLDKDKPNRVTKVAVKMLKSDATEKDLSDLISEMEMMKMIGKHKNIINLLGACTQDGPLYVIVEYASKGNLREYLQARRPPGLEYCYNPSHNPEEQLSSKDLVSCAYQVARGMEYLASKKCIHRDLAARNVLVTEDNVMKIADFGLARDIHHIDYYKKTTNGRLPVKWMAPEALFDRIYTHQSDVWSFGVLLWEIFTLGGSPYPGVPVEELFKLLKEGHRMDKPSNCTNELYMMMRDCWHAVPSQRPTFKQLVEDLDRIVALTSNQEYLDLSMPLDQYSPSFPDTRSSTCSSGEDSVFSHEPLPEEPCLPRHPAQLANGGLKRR
# Summary of the method: as §1
# [9] = target: panel of human kinases (kinase named in endpoint) (Homo sapiens, UniProt P31751); settings: 10 µM; read-out: Activity (%), PKBβ(h)
# Summary of the method: as §1
# [10] = target: panel of human kinases (kinase named in endpoint) (Homo sapiens, UniProt P35626); settings: 10 µM; read-out: Activity (%), GRK3(h)
# Summary of the method: as §1
# [11] = target: panel of human kinases (kinase named in endpoint) (Homo sapiens, UniProt P48730); settings: 10 µM; read-out: Activity (%), CK1δ(h)
# Summary of the method: as §1
# [12] = target: panel of human kinases (kinase named in endpoint) (Homo sapiens, UniProt P49759); settings: 10 µM; read-out: Activity (%), CLK1(h)
# Summary of the method: as §1
# [13] = target: panel of human kinases (kinase named in endpoint) (Homo sapiens, UniProt P52564); settings: 10 µM; read-out: Activity (%), MKK6(h)
# Chain of panel of human kinases (kinase named in endpoint) (Homo sapiens, UniProt P52564) (P52564 whole entry): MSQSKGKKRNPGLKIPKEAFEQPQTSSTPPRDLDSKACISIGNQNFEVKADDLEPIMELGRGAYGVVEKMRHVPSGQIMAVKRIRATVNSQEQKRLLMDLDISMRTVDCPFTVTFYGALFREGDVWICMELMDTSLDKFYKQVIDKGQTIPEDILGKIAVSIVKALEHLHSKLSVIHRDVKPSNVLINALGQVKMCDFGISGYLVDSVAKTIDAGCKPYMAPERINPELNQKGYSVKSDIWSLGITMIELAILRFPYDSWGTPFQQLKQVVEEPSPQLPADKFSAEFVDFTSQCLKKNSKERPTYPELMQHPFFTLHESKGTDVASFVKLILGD
# Summary of the method: as §1
# [14] = target: panel of human kinases (kinase named in endpoint) (Homo sapiens, UniProt P54764); settings: 10 µM; read-out: Activity (%), EphA4(h)
# Summary of the method: as §1
# [15] = target: panel of human kinases (kinase named in endpoint) (Homo sapiens, UniProt P78527); settings: 10 µM; read-out: Activity (%), DNA-PK(h)
# Summary of the method: as §1
# [16] = target: panel of human kinases (kinase named in endpoint) (Homo sapiens, UniProt Q00536); settings: 10 µM; read-out: Activity (%), CDK16/cyclinY(h)
# Chain of panel of human kinases (kinase named in endpoint) (Homo sapiens, UniProt Q00536) (Q00536 whole entry): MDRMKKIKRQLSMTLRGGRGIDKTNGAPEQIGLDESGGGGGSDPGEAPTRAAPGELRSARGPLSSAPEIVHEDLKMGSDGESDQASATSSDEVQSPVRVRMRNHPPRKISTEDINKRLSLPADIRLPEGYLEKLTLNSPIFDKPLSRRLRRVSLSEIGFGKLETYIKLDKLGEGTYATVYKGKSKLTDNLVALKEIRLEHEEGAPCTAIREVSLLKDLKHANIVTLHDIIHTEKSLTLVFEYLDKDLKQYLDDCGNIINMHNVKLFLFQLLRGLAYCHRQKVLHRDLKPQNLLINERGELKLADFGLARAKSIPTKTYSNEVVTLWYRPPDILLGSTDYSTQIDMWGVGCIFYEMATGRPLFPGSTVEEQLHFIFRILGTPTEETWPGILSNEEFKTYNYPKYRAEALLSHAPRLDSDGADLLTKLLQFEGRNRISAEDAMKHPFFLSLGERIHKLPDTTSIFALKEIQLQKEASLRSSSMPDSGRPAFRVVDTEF
# Summary of the method: as §1
# [17] = target: panel of human kinases (kinase named in endpoint) (Homo sapiens, UniProt Q02763); settings: 10 µM; read-out: Activity (%), Tie2 (h)
# Chain of panel of human kinases (kinase named in endpoint) (Homo sapiens, UniProt Q02763) (Q02763 23-1124): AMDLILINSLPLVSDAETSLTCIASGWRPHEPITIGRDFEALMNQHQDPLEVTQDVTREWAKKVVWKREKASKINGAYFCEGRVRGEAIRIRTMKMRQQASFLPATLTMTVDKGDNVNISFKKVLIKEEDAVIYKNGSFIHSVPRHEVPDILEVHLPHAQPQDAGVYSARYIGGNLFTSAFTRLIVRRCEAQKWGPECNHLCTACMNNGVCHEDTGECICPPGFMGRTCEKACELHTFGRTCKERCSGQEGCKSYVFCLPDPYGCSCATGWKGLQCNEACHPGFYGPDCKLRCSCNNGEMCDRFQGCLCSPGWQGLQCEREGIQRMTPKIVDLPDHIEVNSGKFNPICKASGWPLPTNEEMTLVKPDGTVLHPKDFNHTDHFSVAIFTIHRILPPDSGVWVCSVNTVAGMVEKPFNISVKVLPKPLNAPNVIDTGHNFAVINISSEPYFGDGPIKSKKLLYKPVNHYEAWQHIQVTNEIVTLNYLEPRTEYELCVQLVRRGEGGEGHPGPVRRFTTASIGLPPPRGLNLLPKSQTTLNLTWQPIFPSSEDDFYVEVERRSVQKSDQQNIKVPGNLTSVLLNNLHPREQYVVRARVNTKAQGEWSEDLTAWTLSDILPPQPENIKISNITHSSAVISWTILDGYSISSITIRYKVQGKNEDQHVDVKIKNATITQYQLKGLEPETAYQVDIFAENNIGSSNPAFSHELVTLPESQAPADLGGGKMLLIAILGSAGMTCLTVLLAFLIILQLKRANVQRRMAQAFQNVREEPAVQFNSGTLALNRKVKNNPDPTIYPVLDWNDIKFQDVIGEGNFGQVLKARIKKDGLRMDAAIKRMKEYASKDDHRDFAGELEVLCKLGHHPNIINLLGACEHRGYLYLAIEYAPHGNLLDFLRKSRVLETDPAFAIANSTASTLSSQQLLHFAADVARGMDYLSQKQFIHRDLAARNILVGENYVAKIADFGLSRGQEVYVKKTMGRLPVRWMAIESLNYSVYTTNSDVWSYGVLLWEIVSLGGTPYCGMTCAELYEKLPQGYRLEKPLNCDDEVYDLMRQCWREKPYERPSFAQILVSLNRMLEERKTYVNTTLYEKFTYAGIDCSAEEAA
# Summary of the method: as §1
# [18] = target: panel of human kinases (kinase named in endpoint) (Homo sapiens, UniProt Q16620); settings: 10 µM; read-out: Activity (%), TrkB(h)
# Summary of the method: as §1
# [19] = target: panel of human kinases (kinase named in endpoint) (Homo sapiens, UniProt Q86Z02); settings: 10 µM; read-out: Activity (%), HIPK1(h)
# Chain of panel of human kinases (kinase named in endpoint) (Homo sapiens, UniProt Q86Z02) (Q86Z02 whole entry): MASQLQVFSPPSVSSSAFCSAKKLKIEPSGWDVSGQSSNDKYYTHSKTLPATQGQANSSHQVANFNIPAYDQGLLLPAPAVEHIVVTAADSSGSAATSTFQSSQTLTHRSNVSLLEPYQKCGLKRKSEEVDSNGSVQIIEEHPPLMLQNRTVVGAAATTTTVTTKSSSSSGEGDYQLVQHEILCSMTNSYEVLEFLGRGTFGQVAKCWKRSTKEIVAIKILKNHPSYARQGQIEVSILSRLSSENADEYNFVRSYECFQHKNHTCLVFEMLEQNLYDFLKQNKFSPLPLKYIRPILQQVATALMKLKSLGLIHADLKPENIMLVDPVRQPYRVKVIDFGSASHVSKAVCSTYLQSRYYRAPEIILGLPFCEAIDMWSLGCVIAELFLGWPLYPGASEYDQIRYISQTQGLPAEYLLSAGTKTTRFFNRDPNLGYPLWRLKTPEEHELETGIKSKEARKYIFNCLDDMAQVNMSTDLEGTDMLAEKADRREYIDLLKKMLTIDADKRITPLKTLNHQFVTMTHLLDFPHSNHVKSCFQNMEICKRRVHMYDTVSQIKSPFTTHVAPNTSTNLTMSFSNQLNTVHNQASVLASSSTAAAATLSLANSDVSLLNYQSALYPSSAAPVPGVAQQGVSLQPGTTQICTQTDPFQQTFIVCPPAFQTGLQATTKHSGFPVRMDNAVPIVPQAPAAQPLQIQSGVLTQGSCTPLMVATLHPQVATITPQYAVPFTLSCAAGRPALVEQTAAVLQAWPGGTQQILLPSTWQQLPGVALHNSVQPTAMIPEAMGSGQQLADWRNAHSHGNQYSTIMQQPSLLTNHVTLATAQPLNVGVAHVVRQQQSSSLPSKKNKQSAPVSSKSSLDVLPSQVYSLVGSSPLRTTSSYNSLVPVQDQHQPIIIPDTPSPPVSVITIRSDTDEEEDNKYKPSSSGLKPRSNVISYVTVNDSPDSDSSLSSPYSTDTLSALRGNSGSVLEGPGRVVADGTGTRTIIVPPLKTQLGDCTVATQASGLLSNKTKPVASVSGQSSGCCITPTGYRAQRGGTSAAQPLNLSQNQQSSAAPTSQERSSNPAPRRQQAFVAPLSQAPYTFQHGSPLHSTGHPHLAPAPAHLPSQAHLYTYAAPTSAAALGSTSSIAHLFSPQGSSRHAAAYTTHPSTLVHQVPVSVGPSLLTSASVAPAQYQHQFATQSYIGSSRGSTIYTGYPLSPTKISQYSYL
# Summary of the method: as §1
# [20] = target: panel of human kinases (kinase named in endpoint) (Homo sapiens, UniProt Q8N5S9); settings: 10 µM; read-out: Activity (%), CaMKK1(h)
# Summary of the method: as §1
# [21] = target: panel of human kinases (kinase named in endpoint) (Homo sapiens, UniProt Q8WXR4); settings: 10 µM; read-out: Activity (%), MYO3B(h)
# Summary of the method: as §1
# [22] = target: panel of human kinases (kinase named in endpoint) (Homo sapiens, UniProt Q99986); settings: 10 µM; read-out: Activity (%), VRK1(h)
# Summary of the method: as §1
# [23] = target: panel of human kinases (kinase named in endpoint) (Homo sapiens, UniProt Q9H3Y6); settings: 10 µM; read-out: Activity (%), SRMS(h)
# Summary of the method: as §1
# [24] = target: panel of human kinases (kinase named in endpoint) (Homo sapiens, UniProt Q9UIK4); settings: 10 µM; read-out: Activity (%), DAPK2(h)
# Summary of the method: as §1
# [25] = target: panel of human kinases (kinase named in endpoint) (Homo sapiens, UniProt Q9UQM7); settings: 10 µM; read-out: Activity (%), CaMKIIα(h)
# Chain of panel of human kinases (kinase named in endpoint) (Homo sapiens, UniProt Q9UQM7) (Q9UQM7 whole entry): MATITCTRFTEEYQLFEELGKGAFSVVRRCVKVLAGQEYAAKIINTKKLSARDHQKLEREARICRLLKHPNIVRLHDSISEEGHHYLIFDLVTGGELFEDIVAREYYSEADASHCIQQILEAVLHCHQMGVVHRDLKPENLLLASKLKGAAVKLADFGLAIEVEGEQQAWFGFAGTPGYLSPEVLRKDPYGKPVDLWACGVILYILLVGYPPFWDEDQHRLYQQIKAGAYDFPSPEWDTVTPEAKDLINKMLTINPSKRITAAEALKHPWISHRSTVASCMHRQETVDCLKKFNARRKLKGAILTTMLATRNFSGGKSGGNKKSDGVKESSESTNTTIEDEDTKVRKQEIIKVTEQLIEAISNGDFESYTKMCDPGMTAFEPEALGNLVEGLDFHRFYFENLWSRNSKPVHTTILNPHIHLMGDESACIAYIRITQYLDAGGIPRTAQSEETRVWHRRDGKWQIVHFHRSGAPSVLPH
# Summary of the method: as §1
smiles,measurement,setting,value
CC(C)C(=O)Nc1nc2cc(-c3ccc4c(c3)c(C(=O)NC(C)c3ccccc3)cn4C)ccn2n1 (stereo not shown) [RI-962],activity at 10 µM,[1],53%
same,activity at 10 µM,[2],64%
same,activity at 10 µM,[3],106%
same,activity at 10 µM,[4],85%
same,activity at 10 µM,[5],85%
same,activity at 10 µM,[6],99%
same,activity at 10 µM,[7],80%
same,activity at 10 µM,[8],81%
same,activity at 10 µM,[9],92%
same,activity at 10 µM,[10],92%
same,activity at 10 µM,[11],108%
same,activity at 10 µM,[12],109%
same,activity at 10 µM,[13],97%
same,activity at 10 µM,[14],77%
same,activity at 10 µM,[15],100%
same,activity at 10 µM,[16],121%
same,activity at 10 µM,[17],90%
same,activity at 10 µM,[18],126%
same,activity at 10 µM,[19],103%
same,activity at 10 µM,[20],56%
same,activity at 10 µM,[21],76%
same,activity at 10 µM,[22],86%
same,activity at 10 µM,[23],101%
same,activity at 10 µM,[24],104%
same,activity at 10 µM,[25],93%
